Tests used:
Type in all cases: biochemical
MKK1 = MKK1 (Homo sapiens, UniProt Q02750); assay: Kinase profiling MKK1
Source text: (§1) Any value less that 25 is considered to be highly significant inhibition.

p38a MAPK = p38a MAPK (Homo sapiens, UniProt Q16539); assay: Kinase profiling p38a MAPK
Source text: as §1

PDK1 = biological target: T1, PDK1 (Homo sapiens, UniProt O15530); assay: Kinase profiling PDK1
T1 sequence (O15530 1-556): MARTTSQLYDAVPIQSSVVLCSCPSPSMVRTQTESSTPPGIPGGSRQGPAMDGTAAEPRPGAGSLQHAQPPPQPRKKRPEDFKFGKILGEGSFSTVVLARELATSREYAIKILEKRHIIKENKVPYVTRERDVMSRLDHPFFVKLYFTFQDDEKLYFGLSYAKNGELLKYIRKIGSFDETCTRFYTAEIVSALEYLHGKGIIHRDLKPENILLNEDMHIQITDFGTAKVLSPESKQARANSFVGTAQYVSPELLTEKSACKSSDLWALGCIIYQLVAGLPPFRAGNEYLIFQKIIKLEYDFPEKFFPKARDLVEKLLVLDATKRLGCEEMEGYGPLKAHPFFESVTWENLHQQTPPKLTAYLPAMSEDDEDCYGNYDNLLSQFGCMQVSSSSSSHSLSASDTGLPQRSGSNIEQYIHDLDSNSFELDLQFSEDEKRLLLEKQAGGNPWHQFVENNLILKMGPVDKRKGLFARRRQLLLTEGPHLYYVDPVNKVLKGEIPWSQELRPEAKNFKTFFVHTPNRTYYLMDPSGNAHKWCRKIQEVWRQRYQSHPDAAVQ
Source text: as §1

PKBa = PKBa (Homo sapiens, UniProt P31749); assay: Kinase profiling PKBa
Source text: as §1

SGK1 = biological target: T2, SGK1 (Homo sapiens, UniProt O00141); assay: Kinase profiling SGK1
T2 sequence (O00141 1-431): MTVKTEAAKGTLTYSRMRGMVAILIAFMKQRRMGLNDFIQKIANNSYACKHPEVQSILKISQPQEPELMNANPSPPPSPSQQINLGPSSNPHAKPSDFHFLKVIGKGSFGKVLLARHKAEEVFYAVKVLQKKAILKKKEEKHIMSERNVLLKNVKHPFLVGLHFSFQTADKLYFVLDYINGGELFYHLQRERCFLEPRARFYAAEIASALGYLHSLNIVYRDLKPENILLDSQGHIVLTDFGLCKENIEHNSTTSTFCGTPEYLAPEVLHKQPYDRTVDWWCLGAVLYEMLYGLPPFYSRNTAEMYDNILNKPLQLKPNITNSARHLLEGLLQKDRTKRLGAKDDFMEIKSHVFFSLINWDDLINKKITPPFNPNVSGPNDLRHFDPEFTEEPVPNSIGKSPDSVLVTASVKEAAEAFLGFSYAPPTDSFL
Source text: as §1

PRK2 = PRK2 (Homo sapiens, UniProt Q16513); assay: Kinase profiling PRK2
Source text: as §1

MARK3 = MARK3 (Homo sapiens, UniProt P27448); assay: Kinase profiling MARK3
Source text: as §1

PIM1 = PIM1 (Homo sapiens, UniProt P11309); assay: Kinase profiling PIM1
Source text: as §1

SRPK1 = SRPK1 (Homo sapiens, UniProt Q96SB4); assay: Kinase profiling SRPK1
Source text: as §1

EF2K = EF2K (Homo sapiens, UniProt O00418); assay: Kinase profiling EF2K
Source text: as §1

IRAK4 = biological target: T3, IRAK4 (Homo sapiens, UniProt Q9NWZ3); assay: Kinase profiling IRAK4
T3 sequence (Q9NWZ3 1-460): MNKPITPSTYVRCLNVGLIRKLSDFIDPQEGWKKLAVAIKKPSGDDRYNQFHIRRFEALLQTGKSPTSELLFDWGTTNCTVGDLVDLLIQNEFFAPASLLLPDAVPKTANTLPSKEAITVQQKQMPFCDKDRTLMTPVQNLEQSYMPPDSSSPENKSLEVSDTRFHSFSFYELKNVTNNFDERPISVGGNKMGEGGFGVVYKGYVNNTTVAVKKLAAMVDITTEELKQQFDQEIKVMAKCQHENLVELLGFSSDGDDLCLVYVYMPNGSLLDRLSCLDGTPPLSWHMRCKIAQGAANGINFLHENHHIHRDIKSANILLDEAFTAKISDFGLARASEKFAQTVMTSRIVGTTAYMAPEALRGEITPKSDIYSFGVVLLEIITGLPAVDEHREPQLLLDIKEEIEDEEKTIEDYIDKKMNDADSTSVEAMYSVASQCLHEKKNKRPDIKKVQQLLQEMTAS
Source text: as §1

RIPK2 = RIPK2 (Homo sapiens, UniProt O43353); assay: Kinase profiling RIPK2
Source text: as §1

Src = Src (Homo sapiens, UniProt P12931); assay: Kinase profiling Src
Source text: as §1

BTK = BTK (Homo sapiens, UniProt Q06187); assay: Kinase profiling BTK
Source text: as §1

TrkA = TrkA (Homo sapiens, UniProt P04629); assay: Kinase profiling TrkA
Source text: as §1

VEG-FR = assay: Kinase profiling VEG-FR
Source text: as §1

[1] = 100 micromolar inhibitor concentration, 100 is no change
[2] = 100 micromolar inhibitor, 100 = no change

Chain of TrkA (P04629 33-796, species assumed): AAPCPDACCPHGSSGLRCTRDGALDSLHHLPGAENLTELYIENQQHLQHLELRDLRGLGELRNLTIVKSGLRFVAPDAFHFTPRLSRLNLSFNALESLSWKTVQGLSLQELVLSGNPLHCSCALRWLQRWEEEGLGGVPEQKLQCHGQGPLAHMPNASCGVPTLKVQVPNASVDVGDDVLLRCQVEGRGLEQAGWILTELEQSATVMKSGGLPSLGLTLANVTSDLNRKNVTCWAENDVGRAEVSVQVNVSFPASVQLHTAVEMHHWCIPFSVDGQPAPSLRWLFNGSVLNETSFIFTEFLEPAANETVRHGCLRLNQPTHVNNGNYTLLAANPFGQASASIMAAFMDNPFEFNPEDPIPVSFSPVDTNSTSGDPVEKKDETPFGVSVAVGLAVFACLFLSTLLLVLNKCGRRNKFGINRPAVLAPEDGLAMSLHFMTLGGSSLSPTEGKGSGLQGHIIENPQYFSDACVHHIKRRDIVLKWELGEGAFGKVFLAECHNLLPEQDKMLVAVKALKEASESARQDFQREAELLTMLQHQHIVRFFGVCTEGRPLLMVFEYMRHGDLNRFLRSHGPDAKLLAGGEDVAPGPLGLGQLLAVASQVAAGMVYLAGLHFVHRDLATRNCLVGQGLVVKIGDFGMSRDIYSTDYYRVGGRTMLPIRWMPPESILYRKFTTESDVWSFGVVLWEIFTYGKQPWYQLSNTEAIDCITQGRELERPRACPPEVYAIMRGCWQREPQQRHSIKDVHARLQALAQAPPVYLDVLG
Chain of BTK (Q06187 whole entry, species assumed): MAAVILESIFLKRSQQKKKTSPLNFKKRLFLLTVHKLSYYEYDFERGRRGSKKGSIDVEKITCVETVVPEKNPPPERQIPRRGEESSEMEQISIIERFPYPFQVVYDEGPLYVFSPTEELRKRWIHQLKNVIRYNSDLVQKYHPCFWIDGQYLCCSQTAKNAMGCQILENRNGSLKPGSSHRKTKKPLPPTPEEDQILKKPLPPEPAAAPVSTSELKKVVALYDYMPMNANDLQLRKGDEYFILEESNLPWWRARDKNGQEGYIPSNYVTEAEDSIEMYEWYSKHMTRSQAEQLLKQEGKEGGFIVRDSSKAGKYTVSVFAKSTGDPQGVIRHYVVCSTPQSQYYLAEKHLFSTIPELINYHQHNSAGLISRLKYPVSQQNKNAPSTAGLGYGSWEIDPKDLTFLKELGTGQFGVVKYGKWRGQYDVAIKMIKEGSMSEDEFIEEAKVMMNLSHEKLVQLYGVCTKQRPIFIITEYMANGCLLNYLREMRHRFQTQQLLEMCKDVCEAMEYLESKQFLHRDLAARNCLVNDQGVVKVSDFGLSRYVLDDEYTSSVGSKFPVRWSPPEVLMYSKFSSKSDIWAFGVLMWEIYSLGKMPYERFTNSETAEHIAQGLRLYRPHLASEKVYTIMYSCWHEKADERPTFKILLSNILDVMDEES
Chain of PRK2 (Q16513 whole entry, species assumed): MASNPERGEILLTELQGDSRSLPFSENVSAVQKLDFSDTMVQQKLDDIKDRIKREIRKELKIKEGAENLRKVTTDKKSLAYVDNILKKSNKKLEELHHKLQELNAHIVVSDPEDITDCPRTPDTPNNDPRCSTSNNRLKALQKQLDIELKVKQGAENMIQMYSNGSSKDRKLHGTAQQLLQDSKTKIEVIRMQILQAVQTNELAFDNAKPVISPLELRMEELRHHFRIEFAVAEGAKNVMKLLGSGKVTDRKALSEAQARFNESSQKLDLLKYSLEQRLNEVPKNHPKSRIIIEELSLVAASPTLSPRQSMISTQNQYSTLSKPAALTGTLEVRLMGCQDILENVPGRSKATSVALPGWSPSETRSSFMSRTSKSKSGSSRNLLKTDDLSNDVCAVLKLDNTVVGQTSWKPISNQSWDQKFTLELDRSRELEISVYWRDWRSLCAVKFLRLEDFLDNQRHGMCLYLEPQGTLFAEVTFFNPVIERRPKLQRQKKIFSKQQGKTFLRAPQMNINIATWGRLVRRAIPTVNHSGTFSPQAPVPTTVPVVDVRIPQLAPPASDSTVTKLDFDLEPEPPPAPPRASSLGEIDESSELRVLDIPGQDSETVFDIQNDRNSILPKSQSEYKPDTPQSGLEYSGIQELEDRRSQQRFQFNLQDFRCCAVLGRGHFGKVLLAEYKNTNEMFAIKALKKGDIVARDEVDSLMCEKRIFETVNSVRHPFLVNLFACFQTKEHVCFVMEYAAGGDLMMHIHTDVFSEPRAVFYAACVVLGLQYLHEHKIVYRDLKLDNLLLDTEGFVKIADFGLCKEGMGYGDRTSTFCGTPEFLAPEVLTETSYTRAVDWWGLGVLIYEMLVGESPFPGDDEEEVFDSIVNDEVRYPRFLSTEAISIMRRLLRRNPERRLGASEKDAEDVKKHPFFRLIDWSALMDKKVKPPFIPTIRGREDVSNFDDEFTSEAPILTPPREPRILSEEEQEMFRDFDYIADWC
Chain of SRPK1 (Q96SB4 whole entry, species assumed): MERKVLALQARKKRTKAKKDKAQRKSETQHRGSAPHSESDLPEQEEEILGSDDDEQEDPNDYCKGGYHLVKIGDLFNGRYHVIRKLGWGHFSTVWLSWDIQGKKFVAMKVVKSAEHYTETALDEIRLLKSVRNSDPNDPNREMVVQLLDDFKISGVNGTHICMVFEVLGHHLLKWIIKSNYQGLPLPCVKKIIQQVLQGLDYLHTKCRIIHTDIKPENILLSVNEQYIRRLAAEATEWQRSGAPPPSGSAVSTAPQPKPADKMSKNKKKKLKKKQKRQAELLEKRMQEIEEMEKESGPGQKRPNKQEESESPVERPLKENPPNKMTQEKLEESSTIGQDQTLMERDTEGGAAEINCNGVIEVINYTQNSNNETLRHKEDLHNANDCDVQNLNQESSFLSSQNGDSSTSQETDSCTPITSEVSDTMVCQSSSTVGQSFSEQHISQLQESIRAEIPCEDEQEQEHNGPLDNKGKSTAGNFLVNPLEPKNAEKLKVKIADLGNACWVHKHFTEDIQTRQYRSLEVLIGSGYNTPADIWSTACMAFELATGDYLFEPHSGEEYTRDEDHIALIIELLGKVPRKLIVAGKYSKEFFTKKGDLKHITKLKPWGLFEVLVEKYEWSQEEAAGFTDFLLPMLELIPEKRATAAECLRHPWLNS
Chain of PIM1 (P11309 whole entry, species assumed): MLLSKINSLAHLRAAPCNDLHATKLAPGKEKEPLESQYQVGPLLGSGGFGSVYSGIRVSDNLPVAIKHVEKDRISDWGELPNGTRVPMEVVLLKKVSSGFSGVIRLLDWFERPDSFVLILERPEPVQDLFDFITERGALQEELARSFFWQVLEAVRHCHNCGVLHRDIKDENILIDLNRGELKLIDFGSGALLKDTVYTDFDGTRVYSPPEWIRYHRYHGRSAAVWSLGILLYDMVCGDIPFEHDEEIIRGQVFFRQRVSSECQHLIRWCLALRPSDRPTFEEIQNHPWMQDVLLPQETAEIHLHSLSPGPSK
Chain of PKBa (P31749 whole entry): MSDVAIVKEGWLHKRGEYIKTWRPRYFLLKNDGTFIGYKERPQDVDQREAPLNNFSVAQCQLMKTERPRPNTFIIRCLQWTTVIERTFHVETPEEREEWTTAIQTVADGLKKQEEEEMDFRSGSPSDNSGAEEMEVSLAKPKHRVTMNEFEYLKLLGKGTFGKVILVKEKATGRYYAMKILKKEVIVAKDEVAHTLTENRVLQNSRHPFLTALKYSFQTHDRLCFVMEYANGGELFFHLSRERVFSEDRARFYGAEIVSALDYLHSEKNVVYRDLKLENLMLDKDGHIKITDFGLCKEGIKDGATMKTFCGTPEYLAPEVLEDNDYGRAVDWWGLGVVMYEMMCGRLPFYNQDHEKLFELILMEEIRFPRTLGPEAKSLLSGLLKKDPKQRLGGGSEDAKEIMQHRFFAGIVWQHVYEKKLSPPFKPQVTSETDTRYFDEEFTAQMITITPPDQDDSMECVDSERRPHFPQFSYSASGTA
Chain of Src (P12931 whole entry, species assumed): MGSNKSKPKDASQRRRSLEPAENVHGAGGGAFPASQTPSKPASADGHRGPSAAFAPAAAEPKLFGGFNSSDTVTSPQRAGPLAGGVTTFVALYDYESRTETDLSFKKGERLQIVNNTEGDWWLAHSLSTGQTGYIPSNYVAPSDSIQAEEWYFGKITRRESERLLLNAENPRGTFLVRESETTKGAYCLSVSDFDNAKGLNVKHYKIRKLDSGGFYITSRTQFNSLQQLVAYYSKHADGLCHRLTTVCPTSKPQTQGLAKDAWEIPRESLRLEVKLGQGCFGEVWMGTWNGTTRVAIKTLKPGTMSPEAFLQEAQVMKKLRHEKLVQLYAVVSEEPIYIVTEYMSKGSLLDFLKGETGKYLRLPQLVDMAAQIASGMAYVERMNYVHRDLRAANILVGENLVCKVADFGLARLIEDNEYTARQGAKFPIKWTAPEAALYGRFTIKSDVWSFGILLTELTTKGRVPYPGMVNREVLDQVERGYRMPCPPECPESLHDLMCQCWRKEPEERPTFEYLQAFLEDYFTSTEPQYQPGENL
Chain of RIPK2 (O43353 whole entry, species assumed): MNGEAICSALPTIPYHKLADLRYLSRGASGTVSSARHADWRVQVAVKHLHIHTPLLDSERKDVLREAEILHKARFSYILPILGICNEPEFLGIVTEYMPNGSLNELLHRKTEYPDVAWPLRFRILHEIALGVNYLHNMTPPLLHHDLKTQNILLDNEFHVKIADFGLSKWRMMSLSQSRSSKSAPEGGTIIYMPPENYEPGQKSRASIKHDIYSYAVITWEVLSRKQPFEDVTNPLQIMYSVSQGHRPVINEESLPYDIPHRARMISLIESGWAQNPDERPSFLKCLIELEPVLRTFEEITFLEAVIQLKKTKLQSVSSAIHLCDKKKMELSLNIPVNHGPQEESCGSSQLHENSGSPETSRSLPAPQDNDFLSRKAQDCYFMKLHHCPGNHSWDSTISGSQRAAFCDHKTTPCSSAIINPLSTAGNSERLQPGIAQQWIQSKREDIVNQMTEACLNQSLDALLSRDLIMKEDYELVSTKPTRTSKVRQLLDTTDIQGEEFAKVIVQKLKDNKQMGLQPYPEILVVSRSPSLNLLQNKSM

Structure (SMILES)	residual kinase activity, MKK1 (MKK1; [1])	residual kinase activity, p38a MAPK (p38a MAPK; [1])	residual kinase activity, PDK1 (PDK1; [1])	residual kinase activity, PKBa (PKBa; [1])	residual kinase activity, SGK1 (SGK1; [1])	residual kinase activity, PRK2 (PRK2; [1])	residual kinase activity, MARK3 (MARK3; [1])	residual kinase activity, PIM1 (PIM1; [1])	residual kinase activity, SRPK1 (SRPK1; [1])	residual kinase activity, EF2K (EF2K; [1])	residual kinase activity, IRAK4 (IRAK4; [1])	residual kinase activity, RIPK2 (RIPK2; [1])	residual kinase activity, Src (Src; [1])	residual kinase activity, BTK (BTK; [1])	residual kinase activity, TrkA (TrkA; [1])	residual kinase activity, VEG-FR (VEG-FR; [1])	also measured
N#Cc1ccc2nc(NC(=O)c3ccccc3)sc2c1 [Compound 03-106]	58	60	106	67	77	105	98	32	7	100	70	78	85	49	66	36	–
COC(=O)c1cccc(C(=O)Nc2nc3cc(OC)ccc3s2)c1 [Compound 03-108]	94	94	101	106	83	100	100	95	68	91	63	39	169	68	85	77	–
COC(=O)c1cccc(C(=O)Nc2nc3ccc(F)cc3s2)c1 [Compound 03-110]	70	106	123	109	87	85	105	99	55	94	96	48	178	77	111	66	–
COc1ccc2sc(NC(=O)c3cccc(C(N)=O)c3)nc2c1 [Compound 03-113]	119	113	101	89	88	98	101	50	82	127	58	99	79	74	87	86	–
COc1ccc2nc(C(=O)Nc3ccccc3)sc2c1 [Compound 13-03]	–	–	–	–	–	–	–	–	–	–	–	–	–	–	–	–	residual kinase activity, MKK1 (MKK1; [2]): 70; residual kinase activity, p38a MAPK (p38a MAPK; [2]): 103; residual kinase activity, PDK1 (PDK1; [2]): 113; residual kinase activity, PKBa (PKBa; [2]): 106; residual kinase activity, SGK1 (SGK1; [2]): 91; residual kinase activity, PRK2 (PRK2; [2]): 105; residual kinase activity, MARK3 (MARK3; [2]): 92; residual kinase activity, PIM1 (PIM1; [2]): 96; residual kinase activity, SRPK1 (SRPK1; [2]): 86; residual kinase activity, EF2K (EF2K; [2]): 110; residual kinase activity, IRAK4 (IRAK4; [2]): 93; residual kinase activity, RIPK2 (RIPK2; [2]): 76; residual kinase activity, Src (Src; [2]): 100; residual kinase activity, BTK (BTK; [2]): 31; residual kinase activity, TrkA (TrkA; [2]): 55; residual kinase activity, VEG-FR (VEG-FR; [2]): 87
CC(=O)Nc1nc2ccc([N+](=O)[O-])cc2s1 [Compound 13-10]	–	–	–	–	–	–	–	–	–	–	–	–	–	–	–	5	remaining activity at 100 µM (MKK1; 100 micromolar inhibitor concentration, 100 is no change, read-out: residual kinase activity, MKK1): 62%; remaining activity at 100 µM (p38a MAPK; 100 micromolar inhibitor concentration, 100 is no change, read-out: residual kinase activity, p38a MAPK): 103%; remaining activity at 100 µM (PDK1; 100 micromolar inhibitor concentration, 100 is no change, read-out: residual kinase activity, PDK1): 93%; remaining activity at 100 µM (PKBa; read-out: residual kinase activity, PKBa): 101%; remaining activity at 100 µM (SGK1; 100 micromolar inhibitor concentration, 100 is no change, read-out: residual kinase activity, SGK1): 58%; remaining activity at 100 µM (PRK2; 100 micromolar inhibitor concentration, 100 is no change, read-out: residual kinase activity, PRK2): 93%; remaining activity at 100 µM (MARK3; 100 micromolar inhibitor concentration, 100 is no change, read-out: residual kinase activity, MARK3): 85%; remaining activity at 100 µM (PIM1; 100 micromolar inhibitor concentration, 100 is no change, read-out: residual kinase activity, PIM1): 81%; remaining activity at 100 µM (SRPK1; 100 micromolar inhibitor concentration, 100 is no change, read-out: residual kinase activity, SRPK1): 62%; remaining activity at 100 µM (EF2K; 100 micromolar inhibitor concentration, 100 is no change, read-out: residual kinase activity, EF2K): 95%; remaining activity at 100 µM (IRAK4; 100 micromolar inhibitor concentration, 100 is no change, read-out: residual kinase activity, IRAK4): 8%; remaining activity at 100 µM (RIPK2; 100 micromolar inhibitor concentration, 100 is no change, read-out: residual kinase activity, RIPK2): 27%; remaining activity at 100 µM (Src; 100 micromolar inhibitor concentration, 100 is no change, read-out: residual kinase activity, Src): 85%; remaining activity at 100 µM (BTK; 100 micromolar inhibitor concentration, 100 is no change, read-out: residual kinase activity, BTK): 96%; remaining activity at 100 µM (TrkA; 100 micromolar inhibitor concentration, 100 is no change, read-out: residual kinase activity, TrkA): 98%

From patent US10231954B2, “Neurodegenerative therapies” (LYTIX BIOPHARMA AS, priority 2014, dated 2019)
